Reference: US9249115B2, “N,N1 substituted piperazines having combined antiaggregant, anticoagulant and vasodilatory activity, and method for producing same” (Vertex Closed Joint Stock Company, priority 2011, dated 2016)

Experiments:
[1] = system: Thrombocyte aggregation induced by arachidonic acid; test: Thrombocyte aggregation induced by arachidonic acid; assay type: cell-based, human; conditions: arachidonic acid 0.2 mmol
Procedure: (§1) The study of antiaggregant and anticoagulant properties of N,N′-substituted piperazines on the sample of donor human blood. The blood was collected by donor ulnar vein punction with dry sharp needle without syringe. The administration of drugs that influence on thrombocyte function was cancelled in 7÷10 days before the experiment.
(§2) In graduated plastic centrifuge tube 1 ml of 3.8% basic trisodium citrate solution with pH=7.4 was placed. The ulnar vein was punctuated, the freely effluent blood was collected up to 10 ml mark, the mixture was instantly stirred to prevent air bubbles appearance. The collected and stabilized blood was split in two 5 ml portions in two tubes.
(§3) To obtain thrombocyte enriched plasm the stabilized blood was spinned at 1000 rpm (150 g) for 8 min at room temperature. The repeated spinning of the blood at 3200 rpm (2300 g) for 20 min at 22° C. yielded thrombocyte depleted plasm.
The study of antiaggregant properties of N,N′-substituted piperazines with arachidonic acid (CHRONO-LOG, USA) as an inductor: to 450 l of thrombocyte plasm 50 l of N,N′-substituted piperazine solution was added, the mixture was incubated in the cuvette of CHRONO-LOG aggregometer for 15 min at 36° C. The concentration of arachidonic acid in the sample was 0.2 mmol, the concentrations of N,N′-substituted piperazines and comparison substance (aspirin) were 4÷5 mmol/L.
It was shown that N,N′-substituted piperazines have pronounced aspirin-like activity by inhibiting thrombocyte aggregation induced by arachidonic acid (table 5).

[2] = system: thrombocyte depleted plasm coagulation; test: Activated partial thromboplastin time (APTT), anticoagulant properties; assay type: biochemical, human
Procedure: as §1, §2, §3
To study anticoagulant properties of N,N′-substituted piperazines activated partial thromboplastin time (APTT) was measured. That is the ability of N,N′-substituted piperazines to increase thrombocyte depleted plasm coagulation time compared to the ability of control sample. The set of reagents for APTT determination (Russian Scientific Research Institute of Hematology and Transfusiology Ministry of Health of Russian Federation by Technical Regulation 9398-214-01966456-99) and COAG-A-MATE® XM coagulometer (ORGANON TEKNIKA, USA) were used.
The solutions of N,N′-substituted piperazines were mixed with thrombocyte depleted plasm at 1:1 ratio, then 0.1 ml of APTT reagent was added, the mixture was incubated in the cuvette for 5 min at 37° C., then 0.1 ml of 0.277% CaCl2 solution was added. The time of coagulation (in seconds) was measured.

[3] = system: Collagen-induced thrombocyte aggregation; test: Collagen-induced thrombocyte aggregation, donor human thrombocyte enriched plasm; assay type: cell-based; conditions: collagen inductor; for MA, %: human thrombocyte plasm
Procedure: as §1, §2, §3
(§4) The study of anticoagulant activity was done within 2 h after thrombocyte enriched plasm obtaining. The plasm was normalized to achieve thrombocyte concentration of 200-250×10^9/L by addition of thrombocyte-free plasm. The concentration of thrombocytes was measured on SOLAR AR 2110 analyzer.
(§5) Antiaggregant properties of N,N′-substituted piperazines were evaluated by their influence on thrombocyte aggregation in tests with ADP-, collagen- and ristocetin-induced aggregation. To dissolve N,N′-substituted piperazines and to dilute reagents Tris-HCl-buffer with pH=7.4 was used.
(§6) As the general characteristic of thrombocyte aggregation activity the maximum amplitude (MA) of aggregation was taken on. That is the peak value of transmittance coefficient of the sample after aggregation agent introduction expressed in % relative to the transmittance of thrombocyte-free plasm. The response was registered on ascending linear segment of aggregation curve for 16 s.
(§7) The measurements were done using 4-channel CHRONO-LOG 490-4D analyzer (CHRONO-LOG, USA). The temperature in the cell was 37° C., the spinning speed of magnetic stirrer was 1200 rpm.
(§8) In a cuvette 0.5 ml of N,N′-substituted piperazine solution was placed, then 0.4 ml of normalized thrombocyte plasm was added. The mixture was stirred and incubated at 37° C. for 5 min. The cuvette was placed in aggregometer, then 0.05 ml of aggregation inductor solution was added (ADP or collagen or ristocetin). Thrombocyte aggregation was measured for 3 min.
In collagen-induced thrombocyte aggregation test CHRONO-PAR COLLAGEN reagent (CHRONO-LOG, USA) was diluted with buffer solution until collagen concentration reached 10 µg/ml.

[4] = system: ADP-induced thrombocyte aggregation; test: ADP-induced thrombocyte aggregation, donor human thrombocyte enriched plasm; assay type: cell-based; conditions: ADP inductor; for MA, %: human thrombocyte plasm
Procedure: as §1, §2, §3, §4, §5, §6, §7, §8
ADP-induced reversible thrombocyte aggregation test utilized CHRONO-PAR ADP reagent (CHRONO-LOG, USA) with 10 mol concentration. Primary (reversible) thrombocyte aggregation was evaluated by the response on addition of ADP threshold dose (ADP concentration is 1 mol) to plasm.

[5] = system: Ristocetin-induced thrombocyte aggregation; test: Ristocetin-induced thrombocyte aggregation, donor human thrombocyte enriched plasm; assay type: cell-based; conditions: ristocetin inductor; for MA (60 c), %: amplitude at 60 s
Procedure: as §1, §2, §3, §4, §5, §6, §7, §8
To study ristocetin-induced thrombocyte aggregation CHRONO-PAR RISTOCETIN reagent (CHRONO-LOG, USA) was diluted with buffer solution until ristocetin concentration reached 12 mg/ml. Thrombocyte aggregation amplitude was measured in 60 s after the beginning of the reaction.

[6] = 1.7 mmol/L, thrombocyte depleted plasm
[7] = 2.5 mmol/L, thrombocyte depleted plasm
[8] = 4.1 mmol/L, thrombocyte depleted plasm
[9] = 8.3 mmol/L, thrombocyte depleted plasm
[10] = Homo sapiens, 0.5 mmol/L, read-out: (MA0-MAx): MA0 * 100%
[11] = Homo sapiens, 1.25 mmol/L, read-out: (MA0-MAx): MA0 * 100%
[12] = Homo sapiens, 2.5 mmol/L, read-out: (MA0-MAx): MA0 * 100%
[13] = Homo sapiens, 0.2 mmol/L, read-out: (MA0-MAx): MA0 * 100%
[14] = Homo sapiens, 2.50 mmol/L, read-out: (MA0-MAx): MA0 * 100%
[15] = Homo sapiens, 5.0 mmol/L, read-out: (MA0-MAx): MA0 * 100%

## CCOc1ccc(CN2CCN(C(=N)N)CC2)c(OCC)c1OCC.Cl [Example 5, 4-(2,3,4-triethoxybenzyl)piperazine-1-carboximidamide hydrochloride]
[1]; 4.0 mmol/L
  MA: 2
  Max. rate for 16 sec: 1
[1]; Homo sapiens, 4.0 mmol/L
  inhibition at 4000 µM: 100%
[2]; 1.7 mmol/L
  (APTTx-APTT0): APTT0 * 100%: −4.9%
[2]; [6]
  APTT: 53.7 ± 7.0 s
[2]; 2.5 mmol/L
  (APTTx-APTT0): APTT0 * 100%: 22.7%
[2]; [7]
  APTT, sec: 69.2 ± 5.9- sec
[2]; 4.1 mmol/L
  (APTTx-APTT0): APTT0 * 100%: 35.6%
[2]; [8]
  APTT: 76.5 ± 9.8 s
[2]; 6.3 mmol/L
  (APTTx-APTT0): APTT0 * 100%: 75.4%
[2]; 6.3 mmol/L, thrombocyte depleted plasm
  APTT: 98.9 ± 9.9 s
[2]; [9]
  APTT: >150 s
[3]; 0.5 mmol/L
  MA, %: 74.5 ± 4.3%
[3]; 1.25 mmol/L
  MA, %: 63.7 ± 2.2%
[3]; 2.5 mmol/L
  MA, %: 23.9 ± 0.3%
[3]; [10]
  inhibition at 500 µM: 5.3%
[3]; [11]
  inhibition at 1250 µM: 19.1%
[3]; [12]
  inhibition at 2500 µM: 69.8%
[4]; 0.2 mmol/L
  MA, %: 14.9 ± 2.0%
[4]; 0.5 mmol/L
  MA, %: 11.5 ± 1.3%
[4]; 1.25 mmol/L
  MA, %: 5.3 ± 2.2%
[4]; 2.50 mmol/L
  MA, %: 1.9 ± 0.4%
[4]; [13]
  inhibition at 200 µM: 2.7%
[4]; [10]
  inhibition at 500 µM: 24.8%
[4]; [11]
  inhibition at 1250 µM: 65.4%
[4]; [14]
  inhibition at 2500 µM: 87.8%

## COc1cc(C(=O)N2CCN(C(=N)N)CC2)cc(OC)c1OC.O=C(O)/C=C/C(=O)O [Example 1, 4-(3,4,5-trimethoxybenzoyl)piperazine-1-carboximidamide fumarate hemihydrate]
[5]; 0.5 mmol/L
  (MAx-MA0): MA0 * 100%: 1.8%
  MA (60 c), %: 70.0 ± 10.5%
[5]; 1.25 mmol/L
  (MAx-MA0): MA0 * 100% (Ozagrel: (MA0-MAx): MA0 * 100%): 12.9%
  MA (60 c), %: 62.1 ± 7.7%
[5]; 2.5 mmol/L
  (MAx-MA0): MA0 * 100% (Ozagrel: (MA0-MAx): MA0 * 100%): 22.7%
  MA (60 c), %: 55.1 ± 11.1%
[5]; 5.0 mmol/L
  (MAx-MA0): MA0 * 100% (Ozagrel: (MA0-MAx): MA0 * 100%): 53.3%
  MA (60 c), %: 33.3 ± 4.5%
[1]; 4.5 mmol/L
  MA: 33
  Max. rate for 16 sec: 20
[1]; Homo sapiens, 4.5 mmol/L
  inhibition at 4500 µM: 60%
[2]; 1.7 mmol/L
  (APTTx-APTT0): APTT0 * 100%: 12.2%
[2]; [6]
  APTT: 50.4 ± 7.0 s
[2]; 2.5 mmol/L
  (APTTx-APTT0): APTT0 * 100%: 40.1%
[2]; [7]
  APTT: 63.3 ± 5.7 s
[2]; 4.1 mmol/L
  (APTTx-APTT0): APTT0 * 100%: 56.8%
[2]; [8]
  APTT: 70.4 ± 5.2 s
[2]; 8.3 mmol/L
  (APTTx-APTT0): APTT0 * 100%: 209.8%
[2]; [9]
  APTT: 139.1 ± 9.5 s
[3]; 0.5 mmol/L
  MA, %: 70.0 ± 5.1%
[3]; 1.25 mmol/L
  MA, %: 60.7 ± 7.7%
[3]; 2.5 mmol/L
  MA, %: 18.4 ± 3.1%
[3]; 5.0 mmol/L
  MA, %: 2.1 ± 0.4%
[3]; [10]
  inhibition at 500 µM: 5.4%
[3]; [11]
  inhibition at 1250 µM: 18.8%
[3]; [12]
  inhibition at 2500 µM: 75.1%
[3]; [15]
  inhibition at 5000 µM: 97.2%
[4]; 0.2 mmol/L
  MA, %: 6.4 ± 1.1%
[4]; 0.5 mmol/L
  MA, %: 5.0 ± 1.1%
[4]; 1.25 mmol/L
  MA, %: 4.1 ± 0.7%
[4]; 2.50 mmol/L
  MA, %: 3.0 ± 12.1%
[4]; 5.0 mmol/L
  MA, %: 1.3 ± 0.5%
[4]; [13]
  inhibition at 200 µM: 53.3%
[4]; [10]
  inhibition at 500 µM: 63.5%
[4]; [11]
  inhibition at 1250 µM: 70.1%
[4]; [14]
  inhibition at 2500 µM: 78.1%
[4]; [15]
  inhibition at 5000 µM: 90.5%
